Results on five compounds are retold here after ChEMBL document CHEMBL4622981, “Exploration of TRPM8 Binding Sites by β-Carboline-Based Antagonists and Their In Vitro Characterization and In Vivo Analgesic Activities” (J Med Chem, 2020).

Data set [1] can be described thus: Stability in human liver microsomes at 2.5 mM measured up to 60 mins in absence of phase 1 cofactor NADPH by HPLC analysis. Format: ADME, Microsome. The note with it: 1 h, 2500 µM. In general terms: Liver microsomes are a subcellular fraction often used to study metabolism.
A short description of data set [2]: Stability in human liver microsomes at 2.5 mM measured up to 60 mins in absence of phase 2 cofactor UDP-GlcUA/NADPH by HPLC analysis. The class given is ADME, Microsome. The note with it: 1 h, 2500 µM.
Data set [3] concerns Rattus norvegicus. The experiment in a line: Inhibition of icilin-induced wet-dog shake in Wistar rat model at 10 mg/kg, ip treated 30 mins prior to icilin challenge measured for 30 mins. The class given is functional, organism-based.
Data set [4] deals with Rattus norvegicus. The data set can be described thus: Inhibition of icilin-induced wet-dog shake in Wistar rat model at 10 mg/kg, ip treated 2 hrs prior to icilin challenge measured for 30 mins. The class given is functional, organism-based.
The nature of data set [5]: Stability in human liver microsomes assessed as metabolic turnover at 2.5 mM preincubated for 5 mins followed by phase 1 cofactor NADPH addition measured for 60 mins by HPLC analysis. Format: ADME, Microsome. The note with it: read-out: Drug metabolism.

Calls of active or inactive are those of the source. The calls are words filed in the database; no cut-off is given here.

`COC(=O)C(Cc1c[nH]c2ccccc12)N(Cc1ccccc1)Cc1ccccc1` (centres undefined): the Stability result in data set [1] and in data set [2] was “Stable” throughout. Also, the inhibition entry with Rattus norvegicus [3] was “Active”. Also, in the data set with Rattus norvegicus [4], the inhibition result is “inactive”.

As to `O=C1[C@@H]2Cc3c([nH]c4ccccc34)[C@@H](c3ccc(Cl)cc3)N2C(=O)N1Cc1ccc(F)cc1`, the Stability result in data set [1] and in data set [2] was “Stable” throughout. Further, in data set [5], the metabolised at 1 h turned out to be 26.5%.

Consider `COC(=O)CC[C@H]1N[C@H](C(=O)NCc2ccc(F)cc2)Cc2c1[nH]c1ccccc21`, for which, in data set [5], the metabolised at 1 h was 1.1 to 72%.

As for `O=C1N[C@H](Cc2ccccc2)C(=O)N2Cc3[nH]c4ccccc4c3C[C@@H]12`, the Stability result in data set [1] and in data set [2] was “Stable” each time. For the same compound, the metabolised at 1 h in data set [5] fell in the range of 1.1 to 72%.

As to `COC(=O)[C@@H]1Cc2c([nH]c3ccccc23)[C@@H](c2ccccc2)N1Cc1ccccc1`, the Stability entry in data set [1] and in data set [2] was “Stable” each time. In data set [5], the metabolised at 1 h was in the range of 1.1 to 72%.
